In test [1] the test system is lettuce plants (Lactuca sativa L.) var. Sant'Anna. The test can be described thus: Application of the iodine formulation by root application (hydroponic nutritive solution), iodine content by optical emission spectrometry. Format: in vivo. The settings on record: 36 μg I/L of nutritive solution, harvested after 15 days, lettuce aerial part. The protocol:
(§1) The seeds of the selected species were germinated within germination trays filled with a growth substrate composed by vernalized black peat and blond sphagnum peat (Agrofino Professional) and placed in a growth chamber.
(§2) The germinated seedlings were grown until the 2nd real leaf stage. Later, the growth substrate portion wherein the roots were confined was extracted and a gentle washing was carried out in order to remove the whole substrate and thus obtain a free root seedling ready to be placed in hydroponics, for the test of root application. The plants were transplanted in 0.35 L pots for the foliar application test.
The plants were grown in recipients containing 5 L of nutritive solution added with iodine salts obtained according to Example 1, or with the nutritive solution added with the formulation object of the patent. In both treatments, the applied iodine amount was the same: 36 μg I/L of nutritive solution. The plants were then grown in controlled conditions in a growth chamber: • 07.00-12.00: T 24° C., RH 60%, Light Int. 300 μmol/m^2/s; • 12.00-16.00: T 25° C., RH 60%, Light Int. 400 μmol/m^2/s; • 16.00-20.00: T 24° C., RH 60%, Light Int. 300 μmol/m^2/s; • 20.00-07.00: T 23° C., RH 60%, Light Int. 0 μmol/m^2/s.
After 15 days the plants were harvested and the aerial part was weighted. Each plant was washed with deionized water and dried in oven at 105° C. overnight. […]

Test [2] shares this test system. The test can be described thus: Application of the iodine formulation by foliar application (foliar spray), iodine content by optical emission spectrometry. Format: in vivo. The following applies: foliar spray at transplantation and after 7 days, 30 μg iodine/plant, harvested after 15 days, lettuce aerial part. The method, then:
as §1, §2
The plants were grown for 15 days in 0.35 L pots, containing universal topsoil based on vernalized black peat and blond sphagnum, in controlled conditions in a growth chamber: • 07.00-12.00: T 24° C., RH (Relative humidity) 60%, Light Int. 300 μmol/m^2/s; • 12.00-16.00: T 25° C., RH 60%, Light Int. 400 μmol/m^2/s; • 16.00-20.00: T 24° C., RH r 60%, Light Int. 300 μmol/m^2/s; • 20.00-07.00: T 23° C., RH 60%, Light Int. 0 μmol/m^2/s.
The formulations (iodine salts and formulation object of the invention) were applied during transplantation and after 7 days, by foliar spray, delivering 5 ml of applicative solution according to Example 1 to each plant. In both treatments, the applied iodine amount was the same: 30 μg/plant. […]

On to `[I-].[K+]` [KI salt, potassium iodide], for which, in test [1], the iodine absorption efficiency is 46% and the “iodine content in the food” value is 55 μg/100 g fresh weight. In addition, in test [2], the iodine absorption efficiency amounted to 40% and the “iodine content in the food” value is reported as 36 μg/100 g fresh weight.

These data come from patent US20260157378A1, “PROCESS FOR THE PREPARATION OF COMPOSITIONS BASED ON AMINO ACIDS AND PEPTIDES OF ANIMAL ORIGIN AND IODINE, COMPOSITIONS THUS OBTAINED AND USE THEREOF” (SICIT GROUP S.P.A., priority 2022, published 2026).
